# “And” between values parts separate entries of the source, which are not always exact repeats. Equal values may be shown once.
# Assays:
# Type in all cases: physicochemical
# [1] = Solubility in neat solvents, shake-flask with spectrophotometric determination; settings: for solubility at 24 h: 25 °C, organic solvent or mixture, thermodynamic from solid
# Protocol: (§1) The calibration curves for each derivative were obtained using successful dilutions of initial stock solutions followed by spectrophotometric measurements of the obtained solutions with decreasing concentration. The concentration ranges for the derivatives 1, 2, and 3 were 0.0081–0.0405 mg/mL, 0.0077–0.0385 mg/mL, and 0.0068–0.017 mg/mL, respectively. Methanol was used both as a solvent, as well as a reference for spectrophotometric measurements. […] The A360 spectrophotometer from AOE Instruments was used for the preparation of the calibration curves. […] Three calibration curves were prepared for each derivative and then averaged.
# (§2) A multi-step procedure was employed in order to find the solubility of the studied derivatives in the selected solvents. First of all, the excess amount of the considered compound was added to test tubes containing either neat solvents or their mixtures with water in different proportions, thus forming binary solvents. Saturated solutions were obtained in this way, placed in a Shaker Incubator ES-20/60 from Biosan, and incubated for 24 h at 298.1 K. The temperature adjustment was possible with a 0.1-degree accuracy, and the variance within a 24 h cycle was 0.5 degrees. The samples were simultaneously mixed at 60 rev/min. After incubation, the samples were filtered with the help of plastic syringes equipped with PTFE filters with 0.22 µm pore size. The obtained filtrates were diluted with methanol in another set of test tubes. In order to determine the mole fractions of a solute in the solution, 1 mL of the filtered samples was weighed in 10 mL volumetric flasks using a RADWAG AS 110 R2.PLUS analytical balance. The samples diluted with methanol were measured spectrophotometrically using the same instrument as was used in the case of calibration curves. The spectra were recorded in the wavelength range of 190–500 nm, and the resolution was 1 nm. Methanol was used if further dilution of the sample was required, and it was also used as a reference for calibrating the spectrophotometer. The absorbance values at 315 nm, 321 nm, and 321 nm were taken into account for derivatives 1, 2, and 3, respectively. Based on the calibration curves, the concentration of the solute in the samples was determined together with its mole fraction. Three separate measurements were conducted, and the final values are the results of averaging them.
# [2] = Solubility in DMSO-water binary mixtures; settings: for solubility at 24 h: 25 °C, thermodynamic from solid
# Protocol: as §1, §2
# [3] = Solubility in NMP-water binary mixtures; settings: for solubility at 24 h: thermodynamic from solid
# Protocol: as §1, §2
# [4] = neat γ-nonanoic lactone, 298.1 K
compound,measurement,setting,value
"O=C1Nc2ccc([N+](=O)[O-])cc2C1=NNC(=O)c1ccccc1C(F)(F)F [derivative 1, 2-trifluoromethyl-N′-[5-nitro-2-oxo-1,2-dihydro-3H-indol-3-ylidene]benzohydrazide]",solubility at 24 h,"[1]; neat DMF, 298.1 K",119 mg/mL
same,solubility at 24 h,"[1]; neat DMP, 298.1 K",0.94 mg/mL
same,solubility at 24 h,"[1]; neat DMSO, 298.1 K",327 mg/mL
same,solubility at 24 h,"[1]; neat NMP, 298.1 K",265 mg/mL
same,solubility at 24 h,"[1]; neat acetone, 298.1 K",4.39 mg/mL
same,solubility at 24 h,"[1]; neat acetonitrile, 298.1 K",2.02 mg/mL
same,solubility at 24 h,"[1]; neat cyrene, 298.1 K",1.62 mg/mL
same,solubility at 24 h,"[1]; neat diglyme, 298.1 K",2.52 mg/mL
same,solubility at 24 h,"[1]; neat dioxane, 298.1 K",4.17 mg/mL
same,solubility at 24 h,"[1]; neat ethyl lactate, 298.1 K",1.25 mg/mL
same,solubility at 24 h,"[1]; neat methanol, 298.1 K",1.51 mg/mL
same,solubility at 24 h,"[1]; neat tetraglyme, 298.1 K",4.62 mg/mL
same,solubility at 24 h,"[1]; neat triglyme, 298.1 K",0.95 mg/mL
same,solubility at 24 h,"[1]; neat γ-heptalactone, 298.1 K",1.78 mg/mL
same,solubility at 24 h,[1]; [4],1.16 mg/mL
same,solubility at 24 h,[1]; neat 1-butanol,0.47 mg/mL
same,solubility x,"[1]; neat 1-butanol, 298.1 K",1.11 (0.04) × 10^−4 mole fraction
same,solubility at 24 h,[1]; neat 1-propanol,0.61 mg/mL
same,solubility x,"[1]; neat 1-propanol, 298.1 K",1.19 (0.05) × 10^−4 mole fraction
same,solubility at 24 h,[1]; neat 4FM,7.22 mg/mL
same,solubility x,"[1]; neat 4FM, 298.1 K",1.88 (0.04) × 10^−3 mole fraction
same,solubility x,"[1]; neat DMF, 298.1 K",2.66 × 10^−2 mole fraction and 2.66 (0.55) × 10^−2 mole fraction
same,solubility x,"[1]; neat DMP, 298.1 K",2.96 (0.11) × 10^−4 mole fraction
same,solubility x,"[1]; neat DMSO, 298.1 K",7.70 × 10^−2 mole fraction and 7.70 (0.11) × 10^−2 mole fraction
same,solubility x,"[1]; neat NMP, 298.1 K",8.06 × 10^−2 mole fraction and 8.06 (0.25) × 10^−2 mole fraction
same,solubility x,"[1]; neat acetone, 298.1 K",8.38 (0.16) × 10^−4 mole fraction
same,solubility x,"[1]; neat acetonitrile, 298.1 K",2.76 (0.12) × 10^−4 mole fraction
same,solubility x,"[1]; neat cyrene, 298.1 K",4.37 (0.09) × 10^−4 mole fraction
same,solubility x,"[1]; neat diglyme, 298.1 K",9.43 (0.90) × 10^−4 mole fraction
same,solubility x,"[1]; neat dioxane, 298.1 K",9.21 (0.21) × 10^−4 mole fraction
same,solubility at 24 h,[1]; neat ethanol,0.82 mg/mL
same,solubility x,"[1]; neat ethanol, 298.1 K",1.26 (0.04) × 10^−4 mole fraction
same,solubility x,"[1]; neat ethyl lactate, 298.1 K",3.75 (0.10) × 10^−4 mole fraction
same,solubility x,"[1]; neat methanol, 298.1 K",1.60 (0.05) × 10^−4 mole fraction
same,solubility x,"[1]; neat triglyme, 298.1 K",4.48 (0.06) × 10^−4 mole fraction
same,solubility x,"[1]; neat γ-heptalactone, 298.1 K",5.92 (0.08) × 10^−4 mole fraction
same,solubility x,[1]; [4],4.81 (0.06) × 10^−4 mole fraction
same,solubility at 24 h,[1]; neat ε-caprolactone,1.6 mg/mL
same,solubility x,"[1]; neat ε-caprolactone, 298.1 K",4.42 (0.09) × 10^−4 mole fraction
same,solubility at 24 h,"[2]; DMSO-water binary mixture, aqueous with cosolvent or surfactant or cyclodextrin, x*DMSO 0.1, 298.1 K",88 mg/mL
same,solubility at 24 h,"[2]; DMSO-water binary mixture, aqueous with cosolvent or surfactant or cyclodextrin, x*DMSO 0.2, 298.1 K",179 mg/mL
same,solubility at 24 h,"[2]; DMSO-water binary mixture, aqueous with cosolvent or surfactant or cyclodextrin, x*DMSO 0.3, 298.1 K",219 mg/mL
same,solubility at 24 h,"[2]; DMSO-water binary mixture, aqueous with cosolvent or surfactant or cyclodextrin, x*DMSO 0.4, 298.1 K",261 mg/mL
same,solubility at 24 h,"[2]; DMSO-water binary mixture, aqueous with cosolvent or surfactant or cyclodextrin, x*DMSO 0.5, 298.1 K",305 mg/mL
same,solubility at 24 h,"[2]; DMSO-water binary mixture, aqueous with cosolvent or surfactant or cyclodextrin, x*DMSO 0.6, 298.1 K",336 mg/mL
same,solubility at 24 h,"[2]; DMSO-water binary mixture, aqueous with cosolvent or surfactant or cyclodextrin, x*DMSO 0.7, 298.1 K",356 mg/mL
same,solubility at 24 h,"[2]; DMSO-water binary mixture, aqueous with cosolvent or surfactant or cyclodextrin, x*DMSO 0.8, 298.1 K",363 mg/mL
same,solubility at 24 h,"[2]; DMSO-water binary mixture, aqueous with cosolvent or surfactant or cyclodextrin, x*DMSO 0.9, 298.1 K",355 mg/mL
same,solubility at 24 h,"[2]; DMSO-water series, organic solvent or mixture, x*DMSO 1.0, 298.1 K",327 mg/mL
same,solubility x,"[2]; x*DMSO 0.1, 298.1 K",5.27 (0.10) × 10^−3 mole fraction
same,solubility x,"[2]; x*DMSO 0.2, 298.1 K",1.47 (0.02) × 10^−2 mole fraction
same,solubility x,"[2]; x*DMSO 0.3, 298.1 K",2.25 (0.03) × 10^−2 mole fraction
same,solubility x,"[2]; x*DMSO 0.4, 298.1 K",3.25 (0.05) × 10^−2 mole fraction
same,solubility x,"[2]; x*DMSO 0.5, 298.1 K",4.46 (0.08) × 10^−2 mole fraction
same,solubility x,"[2]; x*DMSO 0.6, 298.1 K",5.69 (0.15) × 10^−2 mole fraction
same,solubility x,"[2]; x*DMSO 0.7, 298.1 K",6.72 (0.14) × 10^−2 mole fraction
same,solubility x,"[2]; x*DMSO 0.8, 298.1 K",7.60 (0.10) × 10^−2 mole fraction
same,solubility x,"[2]; x*DMSO 0.9, 298.1 K",8.00 (0.14) × 10^−2 mole fraction
same,solubility x,"[2]; x*DMSO 1.0, 298.1 K",7.70 (0.11) × 10^−2 mole fraction
same,solubility at 24 h,"[3]; NMP-water binary mixture, x*NMP 0.1, 25 °C, aqueous with cosolvent or surfactant or cyclodextrin, x*NMP 0.1, 298.1 K",56.6 mg/mL
same,solubility at 24 h,"[3]; NMP-water binary mixture, x*NMP 0.2, 25 °C, aqueous with cosolvent or surfactant or cyclodextrin, x*NMP 0.2, 298.1 K",111 mg/mL
same,solubility at 24 h,"[3]; NMP-water binary mixture, x*NMP 0.3, 25 °C, aqueous with cosolvent or surfactant or cyclodextrin, x*NMP 0.3, 298.1 K",161 mg/mL
same,solubility at 24 h,"[3]; NMP-water binary mixture, x*NMP 0.4, 25 °C, aqueous with cosolvent or surfactant or cyclodextrin, x*NMP 0.4, 298.1 K",205 mg/mL
same,solubility at 24 h,"[3]; NMP-water binary mixture, x*NMP 0.7, 25 °C, aqueous with cosolvent or surfactant or cyclodextrin, x*NMP 0.7, 298.1 K",285 mg/mL
same,solubility at 24 h,"[3]; NMP-water binary mixture, x*NMP 0.8, 25 °C, aqueous with cosolvent or surfactant or cyclodextrin, x*NMP 0.8, 298.1 K",294 mg/mL
same,solubility at 24 h,"[3]; NMP-water binary mixture, x*NMP 0.9, 25 °C, aqueous with cosolvent or surfactant or cyclodextrin, x*NMP 0.9, 298.1 K",282 mg/mL
same,solubility at 24 h,"[3]; NMP-water binary solvent, 25 °C, aqueous with cosolvent or surfactant or cyclodextrin, x*NMP 0.5, 298.1 K",248 mg/mL
same,solubility at 24 h,"[3]; NMP-water binary solvent, 25 °C, aqueous with cosolvent or surfactant or cyclodextrin, x*NMP 0.6, 298.1 K",272 mg/mL
same,solubility at 24 h,"[3]; NMP-water series, x*NMP 1.0, 25 °C, organic solvent or mixture, x*NMP 1.0, 298.1 K",265 mg/mL
same,solubility x,"[3]; x*NMP 0.1, 298.1 K",3.86 (0.05) × 10^−3 mole fraction
same,solubility x,"[3]; x*NMP 0.2, 298.1 K",1.05 (0.01) × 10^−2 mole fraction
same,solubility x,"[3]; x*NMP 0.3, 298.1 K",1.98 (0.04) × 10^−2 mole fraction
same,solubility x,"[3]; x*NMP 0.4, 298.1 K",3.09 (0.04) × 10^−2 mole fraction
same,solubility x,"[3]; x*NMP 0.6, 298.1 K",5.77 (0.07) × 10^−2 mole fraction
same,solubility x,"[3]; x*NMP 0.7, 298.1 K",6.87 (0.11) × 10^−2 mole fraction
same,solubility x,"[3]; x*NMP 0.8, 298.1 K",7.76 (0.08) × 10^−2 mole fraction
same,solubility x,"[3]; x*NMP 0.9, 298.1 K",7.96 (0.10) × 10^−2 mole fraction
same,solubility x,"[3]; x*NMP 1.0, 298.1 K",8.06 (0.25) × 10^−2 mole fraction

# Source: paper PMC10669656, “ADMET and Solubility Analysis of New 5-Nitroisatine-Based Inhibitors of CDK2 Enzymes” (Biomedicines, 2023)
